Each structure is given as a SMILES string.

Consider 2 compounds from patent publication US12491182B2, “Polymorphs of triazole antifungal compound PC945” (Pulmocide Limited, priority 2019, dated 2025).

The nature of data set [1]: Micronisation: particle size distribution and polymorphic integrity. The data set is classed as physicochemical. The following applies: for polymorphic integrity during micronisation (XRPD): XRPD trace after milling compared with before; for particle size distribution D10 / particle size distribution D50 / particle size distribution D90: after micronisation. From the text:
Liquid suspension and aerosol formulations (whether pressurised or unpressurised) will typically contain the compound of the invention in particulate form, for example with a D50 of 0.5-10 μm, suitably around 1-5 μm, such as 1-2 μm. Suitably, the compound of the invention in particulate form has a D10 of 0.2 to 1 μm, such as 0.2 to 0.5 μm. Suitably, the compound of the invention in particulate form has a D90 of 2 to 6 μm such as 3 to 4 μm. The particulate form of the compound may, for example, be a micronised form. Micronisation may be performed using a jet mill such as those manufactured by Hosokawa Alpine. The resultant particle size distribution may be measured using laser diffraction (e.g. with a Malvern Mastersizer 2000S instrument). Particle size distributions may be represented using D10, D50 and D90 values. The Dso median value of particle size distributions is defined as the particle size in microns that divides the distribution in half. The measurement derived from laser diffraction is more accurately described as a volume distribution and consequently the D50 value obtained using this procedure is more meaningfully referred to as a Dv50 value (median for a volume distribution). As used herein Dv values refer to particle size distributions measured using laser diffraction. Similarly, D10 and D90 values, used in the context of laser diffraction, are taken to mean Dv10 and Dv90 values and refer to the particle size whereby 10% of the distribution lies below the D10 value, and 90% of the distribution lies below the D90 value, respectively.
A sample of crude input material (100 g, Form 3) was suspended in a mixture of 5% water in acetone (1.00 L), a seed of Form 1 (100 mg) was added and the mixture was stirred at RT overnight. The suspension was filtered and the filter cake was washed with a mixture of 5% water in acetone (20 mL) and the solids dried at 40° C. to provide polymorphic Form 1 as a white powder (85.5 g, 85.5% recovery, 98.7% purity by HPLC) as determined from its DSC trace (FIG. 9). Micronisation of the product so obtained provided a powder for which the particle size distribution, expressed in D values, was as follows: […].
Micronisation of the product so obtained provided a powder for which the particle size distribution, expressed in D values, was as follows: […]. It will be appreciated by those skilled in the art that these characteristics are suitable for a product intended for administration by inhalation. […] The Form 2 polymorph is therefore susceptible to and stable towards the micronisation process required to derive a material with the properties necessary for its intended purpose.

A short description of data set [2]: Thermo-gravimetric analysis (degradation onset). Format: physicochemical. The protocol:
TGA data were collected on a TA Instrument Q500 TGA, equipped with a 16 position auto-sampler. The instrument was temperature calibrated using certified Alumel and Nickel. Typically 5-10 mg of sample was loaded onto a pre-tared aluminium DSC pan and heated at 10° C./min from ambient temperature to 350° C. A nitrogen purge at 60 mL/min was maintained over the sample. The instrument control software was Advantage for Q Series v2.5.0.256 and Thermal Advantage v5.5.3 and the data were analysed using Universal Analysis v4.5A.
TGA profiling was carried out according to methods described above and was used to determine the amount of residual solvents associated with the polymorphs of Compound I. In addition, it was used to measure the quantity of solvent released on heating from the solvated forms of Compound I. Typical residual solvent levels found in samples of the polymorphs of Compound I are as follows.

Take `Cc1cc(N2CCN(c3ccc(C(=O)Nc4ccc(F)cc4)cc3)CC2)ccc1OC[C@@H]1CO[C@@](Cn2cncn2)(c2ccc(F)cc2F)C1` [Form 1, 4-(4-(4-(((3R,5R)-5-((1H-1,2,4-triazol-1-yl)methyl)-5-(2,4-difluorophenyl)tetrahydrofuran-3-yl)methoxy)-3-methylphenyl)piperazin-1-yl)-N-(4-fluorophenyl)benzamide]: in data set [1], the “polymorphic integrity during micronisation (XRPD)” value was “polymorphic integrity was retained”, the particle size distribution D10 worked out at 0.75 µm, the particle size distribution D50 turned out to be 1.59 µm and the particle size distribution D90 is 3.23 µm. For the same compound, in data set [2] (sample prepared from toluene), the “temperature from which degradation was evident (TGA)” value came out at 320 °C.
Turning to `Cc1cc(N2CCN(c3ccc(C(=O)Nc4ccc(F)cc4)cc3)CC2)ccc1OC[C@@H]1CO[C@@](Cn2cncn2)(c2ccc(F)cc2F)C1` [Form 2, 4-(4-(4-(((3R,5R)-5-((1H-1,2,4-triazol-1-yl)methyl)-5-(2,4-difluorophenyl)tetrahydrofuran-3-yl)methoxy)-3-methylphenyl)piperazin-1-yl)-N-(4-fluorophenyl)benzamide], in data set [1], the “polymorphic integrity during micronisation (XRPD)” value was “no significant change”, the particle size distribution D10 stood at 0.42 µm, the particle size distribution D50 worked out at 1.24 µm and the particle size distribution D90 was 3.57 µm. In addition, the “temperature at which sample begun to degrade (TGA)” value in data set [2] (material isolated from MIBK) is 320 °C. Also, in data set [2] (sample derived from EtOH), the “temperature at which degradation started (TGA)” value turned out to be 320 °C.
